Test results reported in publication PMC11358017, “Nucleotide metabolism in cancer cells fuels a UDP-driven macrophage cross-talk, promoting immunosuppression and immunotherapy resistance” (Nature Cancer, 2024).

Biological target: T1, P2Y6 (P2ry6^WT BMDMs) (Mus musculus, UniProt Q9ERK9)
T1 construct: native full-length receptor, endogenous in mouse bone marrow-derived macrophages (BMDMs); no tag
Assay: Fura-2 intracellular calcium response, BMDMs, Hill fit
Format: cell-based
Conditions: agonist, native mouse BMDMs, peak F340/F380 normalized to ionomycin, pH 7.4, response absent in P2ry6^ΔMy BMDMs

T1 sequence (Q9ERK9 whole entry): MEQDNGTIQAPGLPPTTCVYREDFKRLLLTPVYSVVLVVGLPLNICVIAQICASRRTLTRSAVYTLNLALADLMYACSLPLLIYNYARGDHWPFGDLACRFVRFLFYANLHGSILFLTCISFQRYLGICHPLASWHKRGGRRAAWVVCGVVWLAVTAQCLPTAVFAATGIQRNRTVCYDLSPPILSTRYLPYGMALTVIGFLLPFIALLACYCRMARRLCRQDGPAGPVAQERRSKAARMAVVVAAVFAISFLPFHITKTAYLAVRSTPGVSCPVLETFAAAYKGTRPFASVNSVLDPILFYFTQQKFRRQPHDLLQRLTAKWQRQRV

| EC50 (n = 3) [nM] | EC50 (n = 6, possible conversion to UDP by ectonucleotidases) [nM] | Compound |
| --- | --- | --- |
| 42 ± 5 | – | O=c1ccn([C@@H]2O[C@H](COP(=O)(O)OP(=O)(O)O)[C@@H](O)[C@H]2O)c(=O)[nH]1 [UDP] |
| – | 103 ± 12 | O=c1ccn([C@@H]2O[C@H](COP(=O)(O)OP(=O)(O)OP(=O)(O)O)[C@@H](O)[C@H]2O)c(=O)[nH]1 [UTP] |
